Reference: patent publication USRE48461E1, “Modulation of androgen receptor expression” (Ionis Pharmaceuticals, Inc., priority 2012, dated 2021)

Tests used:
Type in all cases: cell-based, human
VCaP cells [1] = experiment: VCaP apoptosis (Caspase-Glo 3/7); conditions: complete medium, 72 hours
Procedure: After a treatment period of 72 hours in complete medium, apoptosis of the cancer cells was measured with Caspase-Glo 3/7 assay (Promega). Results are presented in Tables 117 and 118 as percent apoptosis of the cells, relative to non-treated cells.

LMR20 cells = experiment: Proliferation of MDV3100-resistant LMR20 cells (MTT; with R1881 or DHT); conditions: 5 days
Procedure: LMR20 cells were plated at 1,500 cells per well in phenol red-free medium with charcoal-stripped fetal bovine serum (CSS), to remove any androgens from the medium (Life Technologies). […] The synthetic androgen agonist, R1881, (Takeda, A. N. et al., Mol. Pharmacol. 2007. 71: 473-82) was added on day 1 at 1 nM dose to a set of cells also treated with each of the antisense oligonucleotides. DHT was added on day 1 at a dose of 10 nM to another set of cells also treated with each of the antisense oligonucleotides. […] After a treatment period of 5 days, the proliferative ability of the cancer cells was measured by the standard MTT assay. Results are presented in Table 42 as percent inhibition of proliferation, relative to non-treated cells.

C4-2 cells = experiment: C4-2 cell proliferation (complete or CSS+DHT medium); conditions: 5 days; for Proliferation (% untreated control): C4-2 cells
Procedure: After a treatment period of 5 days in complete medium or CSS+1 nM DHT medium, the proliferative capacity of the cancer cells was measured with using CellTiter 96® AQueous One Solution or CellTiter-Glo® Cell Proliferation kit (Promega), following the manufacturer's instructions. […] The proliferative capacity of cells cultured in CSS medium without DHT is 17% of untreated control levels.

VCaP cells [2] = experiment: VCaP cell proliferation; conditions: 5 days; for Proliferation (% untreated control): VCaP cells
Procedure: After a treatment period of 5 days in complete medium or CSS+1 nM DHT medium, the proliferative capacity of the cancer cells was measured with using CellTiter 96® AQueous One or CellTiter-Glo® Solution Cell Proliferation kit (Promega), following the manufacturer's instructions. […] Treatment with ISIS oligonucleotides in CSS+DHT medium reduced the proliferative capacity to a greater extent than treatment with MVD-3100. The proliferative capacity of cells cultured in CSS medium without DHT is 12% of untreated control levels.

AR mRNA = AR mRNA levels in LMR20 cells (with/without DHT or R1881); conditions: for AR mRNA levels (% baseline value) after treatment with DHT / AR mRNA levels (% baseline value) after treatment with R1881 / AR mRNA levels (% baseline value) of cells without AR agonist treatment: LMR20 cells; for AR mRNA levels (% baseline value) after treatment with DHT: DHT 10 nM 72 hrs; for AR mRNA levels (% baseline value) after treatment with R1881: R1881 10 nM 72 hrs; for AR mRNA levels (% baseline value) of cells without AR agonist treatment: no AR agonist
Procedure: LMR20 cells were plated at 1,500 cells per well in phenol red-free medium with CSS.

TMPRSS2 mRNA = experiment: Time-course TMPRSS2 expression in C4-2B cells
Procedure: C4-2B cells were plated at 1,000 cells per well in complete medium. […] ISIS 549148 was included as a negative control. […] After a treatment period of 8 hours, 24 hours, and 48 hours, AR expression was measured with primer probe set hAR-LTS00943. Results are presented in Tables 70-72 as percent expression of AR, relative to non-treated cells.
Expression analysis of prostate-specific antigen (PSA) and TMPRSS2 were also analyzed. Results are presented in Tables 73-75 as percent inhibition of PSA expression and Tables 76-78 as percent inhibition of TMPRSS2 expression, relative to non-treated cells.

[3] = complete medium or CSS+1 nM DHT

CNC(=O)c1ccc(N2C(=S)N(c3ccc(C#N)c(C(F)(F)F)c3)C(=O)C2(C)C)cc1F [MDV3100, 4-(3-(4-cyano-3-(trifluoromethyl)phenyl)-5,5-dimethyl-4-oxo-2-thioxoimidazolidin-1-yl)-2-fluoro-N-methylbenzamide, reference compound]
Apoptosis (% untreated control) in VCaP cells treated with MDV-3100 (VCaP cells [1]; 5.0 nM): 528% | Apoptosis (% untreated control) in VCaP cells treated with MDV-3100 (VCaP cells [1]; 0.04 μM): 186% | Apoptosis (% untreated control) in VCaP cells treated with MDV-3100 (VCaP cells [1]; 0.2 μM): 210% | Apoptosis (% untreated control) in VCaP cells treated with MDV-3100 (VCaP cells [1]; 1.0 μM): 612% | apoptosis of VCaP cells (VCaP cells [1]): increased apoptosis of the cells in a dose dependent compared to the control | Percent inhibition of LMR20 cell proliferation (LMR20 cells; CSS + DHT, ASO 0.04 μM): 0% | Percent inhibition of LMR20 cell proliferation (LMR20 cells; CSS + DHT, ASO 0.20 μM): 1% | Percent inhibition of LMR20 cell proliferation (LMR20 cells; CSS + DHT, ASO 1.0 μM): 13% | Percent inhibition of LMR20 cell proliferation (LMR20 cells; CSS + DHT, ASO 5.0 μM): 41% | Percent inhibition of LMR20 cell proliferation (LMR20 cells; CSS + R1881, ASO 0.04 μM): 0% | Percent inhibition of LMR20 cell proliferation (LMR20 cells; CSS + R1881, ASO 0.20 μM): 5% | Percent inhibition of LMR20 cell proliferation (LMR20 cells; CSS + R1881, ASO 1.0 μM): 31% | Percent inhibition of LMR20 cell proliferation (LMR20 cells; CSS + R1881, ASO 5.0 μM): 67% | Percent inhibition of LMR20 cell proliferation (LMR20 cells; CSS, ASO 0.04 μM): 0% | Percent inhibition of LMR20 cell proliferation (LMR20 cells; CSS, ASO 0.20 μM): 5% | Percent inhibition of LMR20 cell proliferation (LMR20 cells; CSS, ASO 1.0 μM): 0% | Percent inhibition of LMR20 cell proliferation (LMR20 cells; CSS, ASO 5.0 μM): 11% | Proliferation (% untreated control) (C4-2 cells; CSS + DHT medium, 0.04 μM): 122 % untreated control | Proliferation (% untreated control) (C4-2 cells; CSS + DHT medium, 0.2 μM): 124 % untreated control | Proliferation (% untreated control) (C4-2 cells; CSS + DHT medium, 1 μM): 87 % untreated control | Proliferation (% untreated control) (C4-2 cells; CSS + DHT medium, 5.0 μM): 22 % untreated control | Proliferation (% untreated control) (C4-2 cells; complete medium, 0.04 μM): 105 % untreated control | Proliferation (% untreated control) (C4-2 cells; complete medium, 0.2 μM): 108 % untreated control | Proliferation (% untreated control) (C4-2 cells; complete medium, 1 μM): 71 % untreated control | Proliferation (% untreated control) (C4-2 cells; complete medium, 5.0 μM): 67 % untreated control | proliferation of C4-2 cells (C4-2 cells; [3]): reduced proliferation of the cells in a dose dependent manner compared to the control | Proliferation (% untreated control) (VCaP cells [2]; CSS + DHT medium, 0.04 μM): 117 % untreated control | Proliferation (% untreated control) (VCaP cells [2]; CSS + DHT medium, 0.2 μM): 119 % untreated control | Proliferation (% untreated control) (VCaP cells [2]; CSS + DHT medium, 1.0 μM): 71 % untreated control | Proliferation (% untreated control) (VCaP cells [2]; CSS + DHT medium, 5.0 μM): 65 % untreated control | Proliferation (% untreated control) (VCaP cells [2]; Complete medium, 0.04 μM): 49 % untreated control | Proliferation (% untreated control) (VCaP cells [2]; Complete medium, 0.2 μM): 44 % untreated control | Proliferation (% untreated control) (VCaP cells [2]; Complete medium, 1.0 μM): 27 % untreated control | Proliferation (% untreated control) (VCaP cells [2]; Complete medium, 5.0 μM): 17 % untreated control | proliferation of VCaP cells (VCaP cells [2]; [3]): reduced proliferation of the cells in a dose dependent compared to the control | AR mRNA levels (% baseline value) after treatment with DHT (AR mRNA; ASO 0.04 μM): 105 % baseline value | AR mRNA levels (% baseline value) after treatment with DHT (AR mRNA; ASO 0.20 μM): 124 % baseline value | AR mRNA levels (% baseline value) after treatment with DHT (AR mRNA; ASO 1.0 μM): 110 % baseline value | AR mRNA levels (% baseline value) after treatment with DHT (AR mRNA; ASO 5.0 μM): 143 % baseline value | AR mRNA levels (% baseline value) after treatment with R1881 (AR mRNA; ASO 0.04 μM): 94 % baseline value | AR mRNA levels (% baseline value) after treatment with R1881 (AR mRNA; ASO 0.20 μM): 107 % baseline value | AR mRNA levels (% baseline value) after treatment with R1881 (AR mRNA; ASO 1.0 μM): 115 % baseline value | AR mRNA levels (% baseline value) of cells without AR agonist treatment (AR mRNA; ASO 0.04 μM): 106 % baseline value | AR mRNA levels (% baseline value) of cells without AR agonist treatment (AR mRNA; ASO 0.20 μM): 101 % baseline value | AR mRNA levels (% baseline value) of cells without AR agonist treatment (AR mRNA; ASO 1.0 μM): 99 % baseline value | AR mRNA levels (% baseline value) of cells without AR agonist treatment (AR mRNA; ASO 5.0 μM): 92 % baseline value | AR mRNA levels in LMR20 cells (AR mRNA; with or without DHT/R1881): increased the levels of AR mRNA in cells treated with AR agonist | Percent inhibition of TMPRSS2 expression compared to the control group in 8 hours (TMPRSS2 mRNA; 0.04 μM): 0% | Percent inhibition of TMPRSS2 expression compared to the control group in 24 hours (TMPRSS2 mRNA; 0.04 μM): 23% | Percent inhibition of TMPRSS2 expression compared to the control group in 48 hours (TMPRSS2 mRNA; 0.04 μM): 5% | Percent inhibition of TMPRSS2 expression compared to the control group in 8 hours (TMPRSS2 mRNA; 0.2 μM): 6% | Percent inhibition of TMPRSS2 expression compared to the control group in 24 hours (TMPRSS2 mRNA; 0.2 μM): 31% | Percent inhibition of TMPRSS2 expression compared to the control group in 48 hours (TMPRSS2 mRNA; 0.2 μM): 16% | Percent inhibition of TMPRSS2 expression compared to the control group in 8 hours (TMPRSS2 mRNA; 1 μM): 45% | Percent inhibition of TMPRSS2 expression compared to the control group in 24 hours (TMPRSS2 mRNA; 1 μM): 63% | Percent inhibition of TMPRSS2 expression compared to the control group in 48 hours (TMPRSS2 mRNA; 1 μM): 46% | Percent inhibition of TMPRSS2 expression compared to the control group in 8 hours (TMPRSS2 mRNA; 5.0 μM): 52% | Percent inhibition of TMPRSS2 expression compared to the control group in 24 hours (TMPRSS2 mRNA; 5.0 μM): 72% | Percent inhibition of TMPRSS2 expression compared to the control group in 48 hours (TMPRSS2 mRNA; 5.0 μM): 59% | TMPRSS2 expression (TMPRSS2 mRNA; time course): also reduced downstream gene expressions but not as potently as that with the ISIS oligonucleotides
